Measured values: patent publication US9242987B2, “Heterocyclyl pyrazolopyrimidine analogues as JAK inhibitors” (Cellzome Limited, priority 2009, dated 2016)

Tests used:
[1] = molecular target: T1, JAK2 (Homo sapiens, UniProt O60674); assay: Kinobeads assay, JAK2; assay type: binding; conditions: mixed Molt4/Ramos cell lysate, dot blot detection
T1 construct: endogenous in cells; host or cells: Mixed Molt4/Ramos lysate (1:2)
How it was run: (§1)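 Lysate from Molt4 and Ramos cells combined 1:2 at 10 mg/mL total protein met test compound and an aminopyrido-pyrimidine affinity matrix for 3 h in the cold. Captured JAK2 and JAK3, after elution, were measured by specific-antibody dot blot on an infrared system; dose-response curves yielded IC50.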

[2] = molecular target: T2, JAK3 (Homo sapiens, UniProt P52333); assay: Kinobeads assay, JAK3; assay type: binding; conditions: mixed Molt4/Ramos cell lysate, dot blot detection
T2 construct: endogenous in cells; host or cells: Mixed Molt4/Ramos lysate (1:2)
T2 sequence (P52333 1-1124): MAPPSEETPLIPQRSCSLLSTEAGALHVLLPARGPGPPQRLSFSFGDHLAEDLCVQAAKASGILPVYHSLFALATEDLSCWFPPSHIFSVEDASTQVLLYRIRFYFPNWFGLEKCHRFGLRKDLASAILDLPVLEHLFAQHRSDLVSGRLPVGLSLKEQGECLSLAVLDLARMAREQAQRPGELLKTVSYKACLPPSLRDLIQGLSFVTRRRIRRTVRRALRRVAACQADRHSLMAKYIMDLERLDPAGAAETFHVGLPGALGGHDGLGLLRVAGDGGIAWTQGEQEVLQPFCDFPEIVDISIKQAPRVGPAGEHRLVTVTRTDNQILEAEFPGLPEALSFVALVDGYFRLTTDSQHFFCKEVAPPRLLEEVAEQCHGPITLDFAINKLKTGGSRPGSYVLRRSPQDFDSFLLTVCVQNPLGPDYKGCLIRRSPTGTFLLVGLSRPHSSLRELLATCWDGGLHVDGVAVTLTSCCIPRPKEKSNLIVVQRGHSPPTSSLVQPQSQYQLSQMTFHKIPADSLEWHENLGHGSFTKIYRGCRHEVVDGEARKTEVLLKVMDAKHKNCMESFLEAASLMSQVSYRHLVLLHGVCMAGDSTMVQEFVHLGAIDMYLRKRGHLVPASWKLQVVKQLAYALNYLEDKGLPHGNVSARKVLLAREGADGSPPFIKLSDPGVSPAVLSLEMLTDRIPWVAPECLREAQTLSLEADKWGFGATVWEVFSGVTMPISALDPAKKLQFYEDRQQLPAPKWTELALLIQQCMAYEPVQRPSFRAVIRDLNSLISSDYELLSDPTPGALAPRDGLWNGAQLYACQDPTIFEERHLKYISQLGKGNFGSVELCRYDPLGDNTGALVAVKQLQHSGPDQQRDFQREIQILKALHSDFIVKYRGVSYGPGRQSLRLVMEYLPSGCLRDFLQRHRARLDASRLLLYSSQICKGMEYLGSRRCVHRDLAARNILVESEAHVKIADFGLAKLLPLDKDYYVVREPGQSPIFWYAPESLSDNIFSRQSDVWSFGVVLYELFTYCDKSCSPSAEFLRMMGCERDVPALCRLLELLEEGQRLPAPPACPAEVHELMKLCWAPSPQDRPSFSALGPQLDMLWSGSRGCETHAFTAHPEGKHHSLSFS
How it was run: as §1

T1 sequence (O60674 whole entry): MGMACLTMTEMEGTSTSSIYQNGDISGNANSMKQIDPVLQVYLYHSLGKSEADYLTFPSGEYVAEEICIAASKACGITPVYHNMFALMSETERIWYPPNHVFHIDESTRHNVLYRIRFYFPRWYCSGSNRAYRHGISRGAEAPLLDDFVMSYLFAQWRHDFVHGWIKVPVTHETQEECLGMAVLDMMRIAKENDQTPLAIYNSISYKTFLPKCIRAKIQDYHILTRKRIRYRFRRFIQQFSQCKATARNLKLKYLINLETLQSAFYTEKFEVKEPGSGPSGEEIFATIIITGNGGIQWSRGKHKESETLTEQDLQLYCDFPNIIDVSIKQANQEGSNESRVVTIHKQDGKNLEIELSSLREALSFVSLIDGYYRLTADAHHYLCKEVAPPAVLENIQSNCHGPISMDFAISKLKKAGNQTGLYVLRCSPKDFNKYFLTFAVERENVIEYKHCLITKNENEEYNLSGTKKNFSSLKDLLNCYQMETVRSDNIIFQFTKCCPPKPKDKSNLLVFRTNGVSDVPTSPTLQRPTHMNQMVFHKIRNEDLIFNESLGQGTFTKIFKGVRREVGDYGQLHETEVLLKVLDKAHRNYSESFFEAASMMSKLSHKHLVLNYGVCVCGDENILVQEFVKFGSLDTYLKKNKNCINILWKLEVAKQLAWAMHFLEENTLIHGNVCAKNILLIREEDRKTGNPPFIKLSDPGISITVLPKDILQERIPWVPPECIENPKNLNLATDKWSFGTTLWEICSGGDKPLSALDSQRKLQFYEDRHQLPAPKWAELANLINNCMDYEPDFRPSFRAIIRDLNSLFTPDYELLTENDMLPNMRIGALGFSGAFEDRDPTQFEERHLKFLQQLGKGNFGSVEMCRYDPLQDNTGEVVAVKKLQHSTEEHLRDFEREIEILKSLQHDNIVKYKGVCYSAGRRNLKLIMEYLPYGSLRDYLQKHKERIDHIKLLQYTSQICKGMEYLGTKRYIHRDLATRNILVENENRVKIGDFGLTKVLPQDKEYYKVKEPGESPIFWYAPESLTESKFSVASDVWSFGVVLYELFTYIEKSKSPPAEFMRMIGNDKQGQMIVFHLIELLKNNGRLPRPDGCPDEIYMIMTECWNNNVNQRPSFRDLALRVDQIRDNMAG

`COCCCOc1cccc(Cn2ncc3cnc(Nc4cnn(C)c4)nc32)c1` [Example 169, 1-(3-(3-Methoxypropoxy)benzyl)-N-(1-methyl-1H-pyrazol-4-yl)-1H-pyrazolo[3,4-d]pyrimidin-6-amine] was tested, and the IC50 [1] was ≥ 10 µM and the IC50 [2] was 0.1 to 1 µM.

`Cn1cc(Nc2ncc3cnn(Cc4cccc(F)n4)c3n2)cn1` [Example 170, 1-((6-Fluoropyridin-2-yl)methyl)-N-(1-methyl-1H-pyrazol-4-yl)-1H-pyrazolo[3,4-d]pyrimidin-6-amine] was tested, and the IC50 [1] was 1 to 10 µM and the IC50 [2] was < 0.1 µM.

For `CO[C@@H](C)COc1cccc(Cn2ncc3cnc(Nc4cnn(C)c4)nc32)c1` [Example 171, (S)-1-(3-(2-Methoxypropoxy)benzyl)-N-(1-methyl-1H-pyrazol-4-yl)-1H-pyrazolo[3,4-d]pyrimidin-6-amine], the IC50 [1] was ≥ 10 µM and the IC50 [2] was < 0.1 µM.

With `Cn1cc(Nc2ncc3cnn(Cc4cccc(OCC5CC5)c4)c3n2)cn1` [Example 172, 1-(3-(Cyclopropylmethoxy)benzyl)-N-(1-methyl-1H-pyrazol-4-yl)-1H-pyrazolo[3,4-d]pyrimidin-6-amine] the IC50 [1] was ≥ 10 µM and the IC50 [2] was 0.1 to 1 µM.

Work on `Cn1cc(Nc2ncc3cnn(Cc4ccccc4OCC4CC4)c3n2)cn1` [Example 173, 1-(2-(Cyclopropylmethoxy)benzyl)-N-(1-methyl-1H-pyrazol-4-yl)-1H-pyrazolo[3,4-d]pyrimidin-6-amine] yielded an IC50 [1] of 1 to 10 µM and an IC50 [2] of 0.1 to 1 µM.

In the case of `C[C@@H]1CN(c2cccc(Cn3ncc4cnc(Nc5cnn(C)c5)nc43)c2)C[C@H](C)O1` [Example 175, 1-(3-((2S,6R)-2,6-Dimethylmorpholino)benzyl)-N-(1-methyl-1H-pyrazol-4-yl)-1H-pyrazolo[3,4-d]pyrimidin-6-amine], the IC50 [1] is reported as ≥ 10 µM and the IC50 [2] is reported as 0.1 to 1 µM.

`COCCOc1cccc(Cn2ncc3cnc(Nc4cnn(CC(F)F)c4)nc32)c1` [Example 176, N-(1-(2,2-Difluoroethyl)-1H-pyrazol-4-yl)-1-(3-(2-methoxyethoxy)benzyl)-1H-pyrazolo[3,4-d]pyrimidin-6-amine] was tested, and the IC50 [1] was ≥ 10 µM and the IC50 [2] was 0.1 to 1 µM.

With `Fc1ccccc1Cn1ncc2cnc(Nc3cnn(CCCN4CCC4)c3)nc21` [Example 177, N-(1-(3-(Azetidin-1-yl)propyl)-1H-pyrazol-4-yl)-1-(2-fluorobenzyl)-1H-pyrazolo[3,4-d]pyrimidin-6-amine] the IC50 [1] was 0.1 to 1 µM and the IC50 [2] was < 0.1 µM.

In the case of `Cn1cc(Nc2ncc3cnn(Cc4cccc(Cl)c4Cl)c3n2)cn1` [Example 178, 1-(2,3-Dichlorobenzyl)-N-(1-methyl-1H-pyrazol-4-yl)-1H-pyrazolo[3,4-d]pyrimidin-6-amine], the IC50 [1] is reported as 1 to 10 µM and the IC50 [2] is reported as < 0.1 µM.

For `Cc1c(O)cccc1Cn1ncc2cnc(Nc3cnn(C)c3)nc21` [Example 179], the IC50 [1] was 1 to 10 µM and the IC50 [2] was < 0.1 µM.

With `Cn1cc(Nc2ncc3cnn(Cc4ccccc4N4CCOCC4)c3n2)cn1` [Example 180, N-(1-Methyl-1H-pyrazol-4-yl)-1-(2-morpholinobenzyl)-1H-pyrazolo[3,4-d]pyrimidin-6-amine] the IC50 [1] was 0.1 to 1 µM and the IC50 [2] was 0.1 to 1 µM.

With `Cn1cc(Nc2ncc3cnn(Cc4cccc(OC5CCOC5)c4)c3n2)cn1` (stereo not drawn) [Example 181, N-(1-Methyl-1H-pyrazol-4-yl)-1-(3-((tetrahydrofuran-3-yl)oxy)benzyl)-1H-pyrazolo[3,4-d]pyrimidin-6-amine] the IC50 [1] was ≥ 10 µM and the IC50 [2] was < 0.1 µM.

With `Fc1ccccc1Cn1ncc2cnc(Nc3cnn(CCN4CCNCC4)c3)nc21` [Example 182, 1-(2-Fluorobenzyl)-N-(1-(2-(piperazin-1-yl)ethyl)-1H-pyrazol-4-yl)-1H-pyrazolo[3,4-d]pyrimidin-6-amine] the IC50 [1] was 0.1 to 1 µM and the IC50 [2] was < 0.1 µM.

For `CN(C)c1cccc(Cn2ncc3cnc(Nc4cnn(C)c4)nc32)n1` [Example 183], the IC50 [1] was ≥ 10 µM and the IC50 [2] was 0.1 to 1 µM.

In the case of `COCCOc1cccc(Cn2ncc3cnc(Nc4cnn(CCCN(C)C)c4)nc32)c1` [Example 184, N-(1-(3-(Dimethylamino)propyl)-1H-pyrazol-4-yl)-1-(3-(2-methoxyethoxy)benzyl)-1H-pyrazolo[3,4-d]pyrimidin-6-amine], the IC50 [1] is reported as 1 to 10 µM and the IC50 [2] is reported as < 0.1 µM.

In the case of `COCCOc1cccc(Cn2ncc3cnc(Nc4cnn(C)c4)nc32)c1C` [Example 185, 1-(3-(2-Methoxyethoxy)-2-methylbenzyl)-N-(1-methyl-1H-pyrazol-4-yl)-1H-pyrazolo[3,4-d]pyrimidin-6-amine], the IC50 [1] is reported as ≥ 10 µM and the IC50 [2] is reported as < 0.1 µM.

In the case of `Cn1cc(Nc2ncc3cnn(Cc4cccc(N[C@@H]5CCOC5)n4)c3n2)cn1` [Example 187, (R)—N-(1-Methyl-1H-pyrazol-4-yl)-1-((6-((tetrahydrofuran-3-yl)amino)pyridin-2-yl)methyl)-1H-pyrazolo[3,4-d]pyrimidin-6-amine], the IC50 [1] is reported as ≥ 10 µM and the IC50 [2] is reported as < 0.1 µM.

With `Cn1cc(Nc2ncc3cnn(Cc4cccc(N5CCCC5)n4)c3n2)cn1` [Example 188, N-(1-Methyl-1H-pyrazol-4-yl)-1-((6-(pyrrolidin-1-yl)pyridin-2-yl)methyl)-1H-pyrazolo[3,4-d]pyrimidin-6-amine] the IC50 [1] was ≥ 10 µM and the IC50 [2] was 0.1 to 1 µM.

With `Cc1ccc(O)cc1Cn1ncc2cnc(Nc3cnn(C)c3)nc21` [Example 189] the IC50 [1] was ≥ 10 µM and the IC50 [2] was 0.1 to 1 µM.

For `CN1CCCC(Cn2cc(Nc3ncc4cnn(Cc5ccccc5F)c4n3)cn2)C1` (stereo not drawn) [Example 192, 1-(2-Fluorobenzyl)-N-(1-((1-methylpiperidin-3-yl)methyl)-1H-pyrazol-4-yl)-1H-pyrazolo[3,4-d]pyrimidin-6-amine], the IC50 [1] was 0.1 to 1 µM and the IC50 [2] was < 0.1 µM.

`Cn1cc(Nc2ncc3cnn(Cc4cccc(OC[C@H]5CCCO5)n4)c3n2)cn1` [Example 193, (R)—N-(1-Methyl-1H-pyrazol-4-yl)-1-((6-((tetrahydrofuran-2-yl)methoxy)pyridin-2-yl)methyl)-1H-pyrazolo[3,4-d]pyrimidin-6-amine] was tested, and the IC50 [1] was ≥ 10 µM and the IC50 [2] was < 0.1 µM.

In the case of `CN1CCN(CCCn2cc(Nc3ncc4cnn(Cc5ccccc5F)c4n3)cn2)CC1` [Example 194, 1-(2-Fluorobenzyl)-N-(1-(3-(4-methylpiperazin-1-yl)propyl)-1H-pyrazol-4-yl)-1H-pyrazolo[3,4-d]pyrimidin-6-amine], the IC50 [1] is reported as ≥ 10 µM and the IC50 [2] is reported as 0.1 to 1 µM.

For `OCCn1cc(Nc2ncc3cnn(Cc4c(F)c(F)cc(F)c4F)c3n2)cn1` [Example 196, 2-(4-((1-(2,3,5,6-Tetrafluorobenzyl)-1H-pyrazolo[3,4-d]pyrimidin-6-yl)amino)-1H-pyrazol-1-yl)ethanol], the IC50 [1] was 0.1 to 1 µM and the IC50 [2] was < 0.1 µM.

With `COCCNC(=O)c1cccc(Cn2ncc3cnc(Nc4cnn(C)c4)nc32)c1` [Example 200] the IC50 [1] was ≥ 10 µM and the IC50 [2] was < 0.1 µM.

With `Cn1cc(Nc2ncc3cnn(Cc4cccc(-c5ccnc(N)c5)c4)c3n2)cn1` [Example 206, 1-(3-(2-Aminopyridin-4-yl)benzyl)-N-(1-methyl-1H-pyrazol-4-yl)-1H-pyrazolo[3,4-d]pyrimidin-6-amine] the IC50 [1] was ≥ 10 µM and the IC50 [2] was 0.1 to 1 µM.

`Cn1cc(Nc2ncc3cnn(Cc4cccc(N5CC[C@@H](O)C5)n4)c3n2)cn1` [Example 208, (R)-1-(6-((6-((1-Methyl-1H-pyrazol-4-yl)amino)-1H-pyrazolo[3,4-d]pyrimidin-1-yl)methyl)pyridin-2-yl)pyrrolidin-3-ol] was tested, and the IC50 [1] was ≥ 10 µM and the IC50 [2] was < 0.1 µM.

For `Cn1cc(Nc2ncc3cnn(Cc4cccc(OCC(N)=O)c4)c3n2)cn1` [Example 209], the IC50 [1] was 1 to 10 µM and the IC50 [2] was < 0.1 µM.

With `Cn1cc(Nc2ncc3cnn(Cc4cccc(C5=CCOCC5)c4)c3n2)cn1` [Example 218, 1-(3-(3,6-Dihydro-2H-pyran-4-yl)benzyl)-N-(1-methyl-1H-pyrazol-4-yl)-1H-pyrazolo[3,4-d]pyrimidin-6-amine] the IC50 [1] was ≥ 10 µM and the IC50 [2] was < 0.1 µM.

`Cn1cc(Nc2ncc3cnn(-c4ccc5c(c4)NC(=O)CO5)c3n2)cn1` [Example 219, 6-(6-((1-Methyl-1H-pyrazol-4-yl)amino)-1H-pyrazolo[3,4-d]pyrimidin-1-yl)-2H-benzo[b][1,4]oxazin-3(4H)-one] was tested, and the IC50 [1] was 0.1 to 1 µM and the IC50 [2] was < 0.1 µM.

In the case of `Cn1cc(Nc2ncc3cnn(Cc4cccc5ccccc45)c3n2)cn1` [Example 220, N-(1-Methyl-1H-pyrazol-4-yl)-1-(naphthalen-1-ylmethyl)-1H-pyrazolo[3,4-d]pyrimidin-6-amine], the IC50 [1] is reported as 1 to 10 µM and the IC50 [2] is reported as 0.1 to 1 µM.
